In PMC3216550 (Scientific Reports, 2011):

Columns and labels:
paAzoR1 = biological target: T1, paAzoR1 (Pseudomonas aeruginosa, UniProt Q9I5F3); experiment: X-ray crystal structure, […] Å; format: binding; conditions: complex with nitrofurazone; FMN in active site
T1 sequence (Q9I5F3 1-212): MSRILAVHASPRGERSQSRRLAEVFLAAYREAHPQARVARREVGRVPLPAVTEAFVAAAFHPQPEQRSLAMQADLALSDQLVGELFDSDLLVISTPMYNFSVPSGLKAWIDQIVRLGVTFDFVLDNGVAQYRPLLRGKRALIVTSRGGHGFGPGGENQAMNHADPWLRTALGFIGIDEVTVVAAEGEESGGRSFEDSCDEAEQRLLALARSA

purified protein = substrate: NC(=O)N/N=C/c1ccc([N+](=O)[O-])o1; experiment: purified protein; conditions: 750 μM NADPH, 20 mM Tris-HCl pH 8.0, 100 mM NaCl

Question: Which “X-ray crystal structure, 2.08 Å” value (paAzoR1) does the source give for `Cc1cc2nc3c(=O)[nH]c(=O)nc-3n(C[C@H](O)[C@H](O)[C@H](O)COP(=O)(O)O)c2cc1C` [FMN] here?
Answer: The FMN is shown with yellow carbon atoms

B1: paAzoR1 (Pseudomonas aeruginosa PAO1) (protein)
chain: T1 sequence (Q9I5F3 1-212)
Question: For B1, which Km (purified protein) is on record?
Answer: 15.7 ± 1.6 µM
